System: 991263-137-R1-J2-PDC complex spheroid viability
Assay: Anticancer human tumor 991263-137-R1-J2-PDC patient-derived colon adenocarcinoma cell line growth inhibition [POLQ]
Conditions: for IC50: curve of first compound; for viability, T/C: stronger effect = lower value
Method: Multicellular complex tumor spheroid response to Polymerase (POL) inhibitors (novobiocin, ART-558, RP6685) in combination with a variety of drugs and investigational agents in selected tumor cell lines
The POL inhibitors (novobiocin, ART-558, and RP6685) were evaluated both individually and in combination with standard of care and investigational anticancer small molecules within a complex spheroid model of solid tumors. . Complex spheroids include a stromal component modeled by human endothelial cells (HUVEC) and fibroblasts modeled by human mesenchymal stem cells (MSCs). The concentration ranges selected for each drug and investigational agent were based upon clinically achievable concentrations if the clinical Cmax of the agent was known.
Compounds. The drugs and investigational agents: novobiocin (NSC847541), ART-558 (NSC835418), RP-6685 (NSC848927), peposertib (NSC802822), ceralasertib (NSC780249), elimusertib (NSC800525), camonsertib (NSC841442), AZD-1390 (NSC803789), olaparib (NSC753686), talazoparib (NSC767125), rucaparib (NSC756644), sotorasib (NSC818433), MRTX-1133 (NSC836407), SN-38 (NSC673596), topotecan (NSC609699), epotoside (NSC141540), doxorubicin (NSC123127), gemcitabine (NSC613327), 5-fluorouracil (NSC19893), paclitaxel (NSC125973), vemurafenib (NSC761431), MSA-2 (NSC828583), SN-011 (NSC837082), adavosertib (NSC754352), prexasertib (NSC758257), carboplatin (NSC241240) and oxaliplatin (NSC266046), were obtained from the National Cancer Institute (NCI) Developmental Therapeutics Program Chemical Repository (21). The FDA-approved anticancer drug set is available from the Developmental Therapeutics Program at https://dtp.cancer.gov/organization/dscb/obtaining/. […] The stock solutions were prepared in dimethyl sulfoxide (DMSO, Sigma-Aldrich, St. Louis, MO, cat. D2650), except for the platinum compounds which were prepared in saline (Quality Biological, Gaithersburg, MD, cat. 114-055-101), at 800-fold the tested concentration and stored at -70 degrees C prior to their use. All drugs and investigational agents were tested over a range starting from a high concentration at or near the clinical Cmax and decreasing in half-log increments. If the clinical Cmax for an agent had not been determined, the highest concentration tested was 10 microM, except for SN-38, which was tested at a high concentration of 1 microM.
Cell Culture. All cells were maintained in an incubator at 37 degrees C and 5% CO2 with 95% humidity. The PDC lines were cultured according to standard operating procedures established by the NCI PDMR (https://pdmr.cancer.gov). Table 3 of the manuscript, lists the cell lines along with the number of the three cell types plated to form the mct-spheroids and media for tumor cell growth. After thawing, all PDC lines, except 997537-175-T-J1-PDC and 415267-285-R-J2-PDC, were cultured in Matrigel-coated flasks prepared with a working solution of 1X Ham's F-12 nutrient mix, without supplementation (Thermo Fisher Scientific, cat. 11765054), 100 U/mL penicillin-streptomycin (Thermo Fisher Scientific, cat. 15140122), and 2.5% Matrigel (Corning Inc., Corning, NY, cat. 354248) for the first three passages. The two PDC lines 997537-175-T-J1-PDC and 415267-285-R-J2-PDC were cultured on uncoated flasks. The 857933-349-R-J2-PDC line was cultured in 6C/Colon 1B media containing advanced DMEM/F-12 (Thermo Fisher Scientific, cat. 12634028), 10 mM HEPES (Thermo Fisher Scientific, cat. 15630080), 1X GlutaMAX supplement (Thermo Fisher Scientific, cat. 35050061), 0.1 mg/mL primocin (InvivoGen, San Diego, CA, cat. ant-pm-2), 10% defined fetal bovine serum, heat inactivated (HyClone Laboratories Inc., Logan, UT, cat. SH30070.03HI), 50% L-WRN conditioned media (ATCC, cat. CRL-3276), 1.25 mM N-Acetyl-L-cysteine (Sigma-Aldrich, cat. A9165), 10 mM nicotinamide (Sigma-Aldrich, cat. N0636), 1X B-27 supplement (Thermo Fisher Scientific, cat. 17504044), 1X N-2 supplement (Thermo Fisher Scientific, cat. […]
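Further: spheroids exposed to compounds for 7 days before readout.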
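Wherever viability, T/C is given: 100% = DMSO vehicle control viability.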

C#Cc1c(F)ccc2cc(O)cc(-c3ncc4c(N5CC6CCC(C5)N6)nc(OCC56CCCN5CC(F)C6)nc4c3F)c12 (configuration not stated) + Cc1cccc(N(C)C(=O)C2C(O)CCN2c2nc(C)cc(C(F)(F)F)c2C#N)c1 gave an IC50 (second compound 0.0316 µM) of over 10 µM, an IC50 (second compound 0.1 µM) of over 10 µM and an IC50 (second compound 0.316 µM) of over 10 µM. The IC50 (second compound 1 µM) was over 10 µM, the IC50 (second compound 3.16 µM) was over 10 µM and the IC50 (second compound 10 µM) was over 10 µM. The viability, T/C (second compound 0.0316 µM, first compound 0.0316 µM) was 110%, the viability, T/C (second compound 0.0316 µM, first compound 0.1 µM) was 95.5% and the viability, T/C (second compound 0.0316 µM, first compound 0.316 µM) was 104%. For the same compound, the viability, T/C (second compound 0.0316 µM, first compound 1 µM) was 104%, the viability, T/C (second compound 0.0316 µM, first compound 3.16 µM) was 92.9% and the viability, T/C (second compound 0.0316 µM, first compound 10 µM) was 100%. The viability, T/C (second compound 0.1 µM, first compound 0.0316 µM) was 97.8%, the viability, T/C (second compound 0.1 µM, first compound 0.1 µM) was 104% and the viability, T/C (second compound 0.1 µM, first compound 0.316 µM) was 109%. The viability, T/C (second compound 0.1 µM, first compound 1 µM) was 76.1%, the viability, T/C (second compound 0.1 µM, first compound 3.16 µM) was 106% and the viability, T/C (second compound 0.1 µM, first compound 10 µM) was 92.2%. The viability, T/C (second compound 0.316 µM, first compound 0.0316 µM) was 101%, the viability, T/C (second compound 0.316 µM, first compound 0.1 µM) was 106% and the viability, T/C (second compound 0.316 µM, first compound 0.316 µM) was 89.8%. It also gave a viability, T/C (second compound 0.316 µM, first compound 1 µM) of 93.5%, a viability, T/C (second compound 0.316 µM, first compound 3.16 µM) of 97.7% and a viability, T/C (second compound 0.316 µM, first compound 10 µM) of 95.8%. It also gave a viability, T/C (second compound 1 µM, first compound 0.0316 µM) of 93.8%, a viability, T/C (second compound 1 µM, first compound 0.1 µM) of 95% and a viability, T/C (second compound 1 µM, first compound 0.316 µM) of 103%. The viability, T/C (second compound 1 µM, first compound 1 µM) was 95.6%, the viability, T/C (second compound 1 µM, first compound 3.16 µM) was 99.9% and the viability, T/C (second compound 1 µM, first compound 10 µM) was 98.2%. For the same compound, the viability, T/C (second compound 3.16 µM, first compound 0.0316 µM) was 95%, the viability, T/C (second compound 3.16 µM, first compound 0.1 µM) was 117% and the viability, T/C (second compound 3.16 µM, first compound 0.316 µM) was 121%. For the same compound, the viability, T/C (second compound 3.16 µM, first compound 1 µM) was 93.2%, the viability, T/C (second compound 3.16 µM, first compound 3.16 µM) was 98.7% and the viability, T/C (second compound 3.16 µM, first compound 10 µM) was 105%. It also gave a viability, T/C (second compound 10 µM, first compound 0.0316 µM) of 94.8%, a viability, T/C (second compound 10 µM, first compound 0.1 µM) of 102% and a viability, T/C (second compound 10 µM, first compound 0.316 µM) of 106%. The viability, T/C (second compound 10 µM, first compound 1 µM) was 90.1%, the viability, T/C (second compound 10 µM, first compound 3.16 µM) was 106% and the viability, T/C (second compound 10 µM, first compound 10 µM) was 79.7%.
